Measured values taken from EP0338042B1, “COMPOSITION AND METHOD FOR TREATING HEPATITIS VIRUS INFECTIONS USING 1-(2'-DEOXY-2'-FLUORO-BETA-D-ARABINOFURANOSYL)-5-ETHYLURACIL” (priority 1987, dated 1989).

Legend:
[1] = system: Vero cells; test: Inhibition of cell growth; type: cell-based, African green monkey; settings: Chlorocebus sabaeus, read-out: ED50 FOR INHIBITING CELL GROWTH IN VERO CELLS
[2] = patients with advanced cancer, x 5; cited from earlier work
[3] = system: P-815 CELLS; test: Inhibition of thymidine incorporation into DNA; type: cell-based, rodent; settings: Mus musculus, P815; read-out: ED50 FOR INHIBITING THYMIDINE INCORPORATION INTO DNA, P-815 CELLS
[4] = system: woodchuck hepatitis virus (WHV); test: Inhibition of WHV replication in chronically infected woodchucks (DNA polymerase activity); type: in vivo, woodchucks (Marmota monax)
Method: All woodchucks bearing chronic active hepatitis virus (Hantz, supra) were administered FMAU twice daily by interperitoneal injections of FMAU in the following dosages:
Studies were then undertaken to evaluate FMAU and FEAU in this animal model using woodchucks naturally chronically-infected with woodchuck hepatitis virus (24). It was assumed that these nucleosides would be anabolized to their nucleoside triphosphates within the animal. WHV replication was measured periodically by the endogenous DNA polymerase activity and by the detection of WHV DNA by the dot-blot hybridization assay. Three different dosages of FMAU and FEAU were investigated. FMAU at 2 mg/kg/day x 5, (given intraperitoneally TABLE VIII
In accordance with the procedures of Example 2, the FEAU inhibition of WHV replication was further studied at different doses administered orally to woodchucks through stomach tubes. Two groups of woodchucks with different initial WHV replication values were examined.
Seven woodchucks with high WHV replication were tested. High replication was defined as over 1000 counts per minute of DNA polymerase activity, and the mean replication was 1600.
Seven woodchucks with low WHV replication were tested. Low replication was defined as lower than 1000 counts per minute of DNA polymerase activity, and the mean replication was 600-800.

[5] = system: HSV-1 INFECTED VERO CELLS; test: Incorporation of 2-14C-labeled nucleoside into DNA of cells; type: cell-based, African green monkey
Description: (§1) There was no detectable incorporation of FEAU radioactivity into the DNA of either L-1210 or Vero cell lines, but substantial amounts of FMAU radioactivity were incorporated into the DNA of both cell lines. When HSV-1 infected Vero cells were exposed to ¹⁴C-labeled FEAU and FMAU, both nucleosides incorporated into the DNA of these virus-infected cells.

[6] = system: VERO; test: as above; type: cell-based, African green monkey; settings: FEAU also not detectable at 100 μM
Description: as §1

[7] = system: HSV-2 (STRAIN G); settings: FMAU 0.5 MG/KG/DAY, cited from earlier work
[8] = system: RAT BONE MARROW CELLS; test: Inhibition of thymidine incorporation into DNA; type: cell-based; settings: Bone marrow cell, read-out: ED50 FOR INHIBITING THYMIDINE INCORPORATION INTO DNA, RAT BONE MARROW CELLS
[9] = system: HSV-1(F); test: Plaque reduction assay in Vero cells; type: cell-based; settings: monkey
Description: (§2) With FMAU as a lead compound, the syntheses of other 5-alkyl substituted 2′-fluoro-ara-uracils were undertaken (8, 9), including 1-(2′-deoxy-2′-fluoro-beta-D-arabinofuranosyl)-5-ethyluracil [FEAU].

[10] = system: HSV-2(G); test: Plaque reduction assay in Vero cells; type: cell-based; settings: monkey
Description: as §2

[11] = system: HSV-2(G); settings: plaque reduction in Vero cells, cited from earlier work
[12] = Toxicity in dogs
[13] = system: simian varicella virus (SVV); test: Simian varicella virus infection in the African green monkey
[14] = system: L-1210 CELLS; test: Inhibition of thymidine incorporation into DNA; type: cell-based, rodent; settings: Mus musculus, L1210; read-out: ED50 FOR INHIBITING THYMIDINE INCORPORATION INTO DNA, L-1210 CELLS
[15] = system: L-1210; test: Incorporation of 2-14C-labeled nucleoside into DNA of cells; type: cell-based, rodent; settings: FEAU also not detectable at 100 μM
Description: as §1

[16] = in vivo experiments with mice; cited from earlier work
[17] = system: HSV-1(F); settings: plaque reduction in Vero cells, cited from earlier work
[18] = system: HL-60 CELLS; test: Inhibition of cell growth; type: cell-based; settings: Homo sapiens, HL-60; read-out: ED50 FOR INHIBITING CELL GROWTH IN HL-60 CELLS
[19] = 0.2 mg/kg/day, FMAU x 5, FEAU x 10

## Cc1cn([C@@H]2O[C@H](CO)[C@@H](O)[C@@H]2F)c(=O)[nH]c1=O [FMAU, 1-(2'-deoxy-2'-fluoro-beta-D-arabinofuranosyl)-5-methyluracil, reference compound]
[1]
  EC50: 2800 nM
[2]
  intravenous dose with dose-limiting CNS toxicity: 0.8 mg/kg/day
[3]
  EC50: 14 µM
[4]; [19]
  suppression of viral replication: equally effective
  toxicity: less severe and delayed toxicity
[4]; 2 mg/kg/day x 5, intraperitoneally
  WHV DNA polymerase activity: complete suppression
[4]; 2 mg/kg/day x 5, intraperitoneally, eventually lethal
  toxicity: severe CNS toxicity
[4]; i.p. 2 mg/kg per day for 7 days or 4 mg/kg per day for 5 days
  persistence of inhibition of WHV replication after cessation of treatment: 20 to 50 days
[4]; i.p. twice daily, 2 mg/kg per day for 7 days or 4 mg/kg per day for 5 days, end of one week following dosage administrations
  woodchuck hepatitis virus DNA polymerase: fallen to background levels
[4]; woodchucks, previous results
  toxicity (previous results): lethal toxicity
[5]
  incorporation into HSV-1-infected Vero cells compared with FEAU: seven-fold greater
[5]; [2-14C] labeled nucleoside
  INCORPORATION INTO DNA AT 10μM, HSV-1 INFECTED VERO CELLS: 3.4 p MOLE/10^6 CELLS/HR
[6]
  INCORPORATION INTO DNA AT 10μM, VERO: 1.3 p MOLE/10^6 CELLS/HR
[7]; twice a day for 4 days from 5 hr after inoculation, calculated on day 21
  MDD: 9.4
[7]; twice a day for 4 days
  % SURVIVORS: 67%
[7]; compared to day 1
  %WT GAIN ON DAY 7: 1%
  %WT GAIN ON DAY 14: 4%
  %WT GAIN ON DAY 21: 5%
  %WT GAIN ON DAY 30: 7%
[8]
  EC50: 8.9 µM
[9]
  THER. INDEX ID₅₀/ED₉₀ HSV-1: 67
[10]
  THER. INDEX ID₅₀/ED₉₀ HSV-2: 31
[11]; read-out: HSV-2(G) ED₅₀
  EC50: 23 nM
[11]; read-out: HSV-2(G) ED₉₀
  EC90: 90 nM
[12]
  neurotoxicity: very neurotoxic
[12]; FMAU i.v. x 5, FEAU x 10 (preliminary)
  lethal dose: 2.5 mg/kg/day
[13]; Cercopithecine alphaherpesvirus 9, in Primates
  minimal effective dose: ~0.04 mg/kg/day
[13]; monkey, in vivo
  potency against SVV compared with FEAU: about 40 fold
[14]
  EC50: 28 µM
[15]
  INCORPORATION INTO DNA AT 10μM, L-1210: 0.69 p MOLE/10^6 CELLS/HR
[16]
  toxicity: relatively nontoxic
[17]; read-out: HSV-1(F) ED₅₀
  EC50: 10 nM
[17]; read-out: HSV-1(F) ED₉₀
  EC90: 42 nM
[18]
  EC50: 15.4 µM
